According to paper PMC6385358, “Discovery of ((1,2,4-oxadiazol-5-yl)pyrrolidin-3-yl)ureidyl derivatives as selective non-steroidal agonists of the G-protein coupled bile acid receptor-1” (Scientific Reports, 2019):

Legend:
Type in all cases: cell-based
GPBAR1 = target: T1, GPBAR1 (Homo sapiens, UniProt Q8TDU6); test: Luciferase reporter (CRE) transactivation assay in HEK-293T cells transfected with GPBAR1; conditions: dose response 1 to 50 µM, HEK-293T transfected with GPBAR1
T1 construct: expressed in transfected cells; host or cells: HEK-293T
T1 sequence (Q8TDU6 1-330): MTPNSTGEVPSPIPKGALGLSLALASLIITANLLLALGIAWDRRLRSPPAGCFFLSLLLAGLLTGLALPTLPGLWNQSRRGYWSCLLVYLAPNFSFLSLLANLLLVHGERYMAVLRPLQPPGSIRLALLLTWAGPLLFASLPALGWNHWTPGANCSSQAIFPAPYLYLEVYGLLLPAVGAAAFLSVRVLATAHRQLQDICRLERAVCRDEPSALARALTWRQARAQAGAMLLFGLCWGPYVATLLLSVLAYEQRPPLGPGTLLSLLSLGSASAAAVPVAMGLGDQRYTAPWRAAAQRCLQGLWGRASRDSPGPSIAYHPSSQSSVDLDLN
Description: (§1) The activity of compounds 1–14 on GPBAR1 was evaluated in a luciferase reporter assay using HEK-293T cells transfected with GPBAR1. The efficacy of tested compounds (Table 1) was measured using taurolithocholic acid (TLCA) as GPBAR1 reference compound[10],[11]. Each compound was tested at the concentration of 10 μM and transactivation activity of TLCA on a cAMP responsive element (CRE) (i.e. TGR5/GPBAR1) was considered equal to 100%. […] Thus, 9 and 10 (Table 1) turned out to be the most promising derivatives considering their low EC50 values and high activity efficacy. To further characterize the pharmacological properties of these compounds, we expanded their in vitro profile to common off-targets for bile acid receptor ligands.
Transactivation assay on HEK-293T cells was performed to investigate GPBAR1 activation, using compound 1–14 and TLCA as positive control at 10 µM, as previously reported.
Supplementary Figure S4. HEK-293T cells were transiently transfected with GPBAR1 and a reporter gene containing a cAMP responsive element in front of the luciferase gene. Cells were stimulated with compounds A-L (10 μM). TLCA (10 μM) was used as positive control. Luciferase activity served as a measure of the rise in intracellular cAMP following activation of GPBAR1. In all panels, results are expressed as mean ± standard error. ^∗p < 0.05 versus not treated cells (NT).

LXRβ = target: T2, LXRβ (Homo sapiens, UniProt P55055); test: Luciferase reporter specificity assay versus LXRβ on HepG2 cells; conditions: 10 μM
T2 construct: host or cells: HepG2
T2 sequence (P55055 1-460): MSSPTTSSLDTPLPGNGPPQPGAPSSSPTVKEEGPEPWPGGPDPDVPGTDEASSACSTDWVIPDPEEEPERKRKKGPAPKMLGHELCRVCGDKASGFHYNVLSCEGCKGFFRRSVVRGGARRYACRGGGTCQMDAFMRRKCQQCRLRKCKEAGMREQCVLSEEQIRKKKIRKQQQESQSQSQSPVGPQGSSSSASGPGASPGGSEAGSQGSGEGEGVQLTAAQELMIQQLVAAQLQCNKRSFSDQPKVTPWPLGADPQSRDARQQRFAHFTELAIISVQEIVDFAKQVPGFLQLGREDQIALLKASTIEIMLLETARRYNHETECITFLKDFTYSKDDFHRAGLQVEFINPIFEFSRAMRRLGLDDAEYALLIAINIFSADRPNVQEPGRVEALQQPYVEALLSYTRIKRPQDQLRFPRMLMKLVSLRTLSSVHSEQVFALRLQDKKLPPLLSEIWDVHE
Description: as §1
(§2) Figure 3 (A) Dose response curves of compounds 9 and 10 (concentrations ranging from 1 to 50 µM) in luciferase reporter assay. (B) Real-time PCR analysis of mRNA expression of Pro-glucagon in GLUTag cells treated with compounds 9 and 10 at 10 μM, and TLCA used as a positive control (10 μM). Values are normalized to GAPDH and are expressed relative to those of not treated cells (NT) which are arbitrarily settled to 1. The relative mRNA expression is expressed as 2^(−ΔΔCt). […]
(§3) The specificity of compounds 9 and 10 versus PPARα, PPARγ, LXRα, LXRβ, FXR and PXR was determined in luciferase reporter gene assays as previously reported[29],[31].

FXR = target: T3, FXR (Homo sapiens, UniProt Q96RI1); test: Luciferase reporter specificity assay versus FXR on HepG2 cells; conditions: 10 μM
T3 construct: host or cells: HepG2
T3 sequence (Q96RI1 1-486): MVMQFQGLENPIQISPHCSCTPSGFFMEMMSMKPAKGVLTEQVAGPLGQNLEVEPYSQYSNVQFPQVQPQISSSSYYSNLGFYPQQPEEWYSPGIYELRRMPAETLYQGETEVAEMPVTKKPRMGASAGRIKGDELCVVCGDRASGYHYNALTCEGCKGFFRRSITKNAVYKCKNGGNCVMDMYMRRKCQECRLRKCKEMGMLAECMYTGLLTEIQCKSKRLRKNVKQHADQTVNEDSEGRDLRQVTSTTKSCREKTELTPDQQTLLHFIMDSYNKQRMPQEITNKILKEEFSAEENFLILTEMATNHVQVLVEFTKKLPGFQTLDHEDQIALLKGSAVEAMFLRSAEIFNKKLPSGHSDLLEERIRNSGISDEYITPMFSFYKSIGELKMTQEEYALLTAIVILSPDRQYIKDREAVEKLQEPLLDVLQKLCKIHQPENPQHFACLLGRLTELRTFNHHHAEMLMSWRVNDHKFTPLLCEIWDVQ
Description: as §1, §2, §3

Structure (SMILES) | EC50 (GPBAR1) | LXRβ transactivation (LXRβ) | FXR transactivation (FXR)
O=C(Nc1ccc(Cl)cc1)N[C@@H]1CN[C@H](c2nc(-c3ccccc3)no2)C1 [Compound 9] | 3.5 µM | unable to induce | unable to induce
O=C(NC1CCCCC1)N[C@@H]1CN[C@H](c2nc(-c3ccccc3)no2)C1 [Compound 10] | 4.6 µM | unable to induce | unable to induce
